Calls of active or inactive are those of the source.
Assays:
[1] = target: T1, Hepatocyte nuclear factor 4-alpha (Homo sapiens, UniProt P41235); type: functional, cell-based;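 note: biochemical luminescence-based dose-response counterscreen measuring inhibition of HNF4 dimerization, run alongside a screen for blockers of ABHD5–perilipin-5 interaction; split luciferase complementation of HNF4 fusion proteins in cell lysate measuring dimerization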
T1 sequence (P41235 whole entry): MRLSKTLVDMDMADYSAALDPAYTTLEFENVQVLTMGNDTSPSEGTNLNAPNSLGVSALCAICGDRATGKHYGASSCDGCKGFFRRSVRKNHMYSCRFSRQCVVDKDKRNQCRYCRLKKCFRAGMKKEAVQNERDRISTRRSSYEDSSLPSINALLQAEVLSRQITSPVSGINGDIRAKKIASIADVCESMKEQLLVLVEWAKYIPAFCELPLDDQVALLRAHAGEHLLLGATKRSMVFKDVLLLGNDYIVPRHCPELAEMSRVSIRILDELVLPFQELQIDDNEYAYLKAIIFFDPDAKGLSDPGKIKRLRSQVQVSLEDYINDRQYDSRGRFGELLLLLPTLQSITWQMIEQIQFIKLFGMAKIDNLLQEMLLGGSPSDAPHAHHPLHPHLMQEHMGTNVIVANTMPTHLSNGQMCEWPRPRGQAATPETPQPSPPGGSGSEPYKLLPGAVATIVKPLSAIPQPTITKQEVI

[2] = target: T2, DNA repair and recombination protein RAD54-like (Homo sapiens, UniProt Q92698); test: inhibitors of human RAD54 branch migration, confirmation, biochemical, fluorescence, cherry-picked samples, dose series (AID 651657); type: functional
T2 sequence (Q92698 whole entry): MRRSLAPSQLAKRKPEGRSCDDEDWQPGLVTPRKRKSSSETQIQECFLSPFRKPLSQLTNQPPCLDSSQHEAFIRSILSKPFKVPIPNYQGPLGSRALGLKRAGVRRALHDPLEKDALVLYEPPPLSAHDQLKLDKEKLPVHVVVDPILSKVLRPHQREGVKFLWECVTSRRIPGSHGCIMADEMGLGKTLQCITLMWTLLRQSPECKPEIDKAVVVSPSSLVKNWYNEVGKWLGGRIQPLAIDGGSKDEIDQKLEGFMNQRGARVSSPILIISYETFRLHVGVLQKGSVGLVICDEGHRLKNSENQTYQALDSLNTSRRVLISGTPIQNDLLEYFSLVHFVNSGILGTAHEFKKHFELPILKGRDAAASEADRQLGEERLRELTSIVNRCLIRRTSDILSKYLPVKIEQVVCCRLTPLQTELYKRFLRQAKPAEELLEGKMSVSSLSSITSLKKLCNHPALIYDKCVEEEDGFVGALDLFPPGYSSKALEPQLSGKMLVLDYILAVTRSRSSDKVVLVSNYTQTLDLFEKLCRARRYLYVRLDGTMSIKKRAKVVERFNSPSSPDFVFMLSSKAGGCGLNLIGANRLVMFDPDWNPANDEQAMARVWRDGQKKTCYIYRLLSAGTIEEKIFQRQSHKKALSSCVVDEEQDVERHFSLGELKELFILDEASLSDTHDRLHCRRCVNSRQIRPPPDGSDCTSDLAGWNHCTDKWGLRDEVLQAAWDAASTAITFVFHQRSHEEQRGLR

[3] = target: Ras and Rab interactor 1/Tyrosine-protein kinase ABL1 (Homo sapiens, UniProt P00519+Q13671); type: functional;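 note: biochemical TR-FRET dose-response test measuring inhibition of binding between Rin1 and Abl proteins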
[4] = HEK293T cytotoxicity, dose response, cytotoxicity control for miR-122 modulator project, cell-based, inhibitor set, cherry-pick, set 2 (AID 720697); type: functional
[5] = target: T3, Trace amine-associated receptor 1 (Homo sapiens, UniProt Q96RJ0); test: Counterscreen for agonists of the human trace amine associated receptor 1 (hTAAR1): Fluorescence-based cell-based high throughput dose response assay to identify hTAAR1 agonist that also desensitize TAAR1 receptor response.; type: functional
T3 sequence (Q96RJ0 whole entry): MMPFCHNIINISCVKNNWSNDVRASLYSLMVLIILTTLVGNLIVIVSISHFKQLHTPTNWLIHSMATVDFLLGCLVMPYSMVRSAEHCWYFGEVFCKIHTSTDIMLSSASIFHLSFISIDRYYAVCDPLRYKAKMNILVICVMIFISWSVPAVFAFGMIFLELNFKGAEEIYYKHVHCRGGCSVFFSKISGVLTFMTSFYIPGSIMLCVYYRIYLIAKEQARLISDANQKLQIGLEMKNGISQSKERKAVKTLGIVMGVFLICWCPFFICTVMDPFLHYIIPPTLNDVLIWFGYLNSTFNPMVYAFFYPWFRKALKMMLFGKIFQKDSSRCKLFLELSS

cells [6] = type: functional, cell-based
cells [7] = type: functional, cell-based; remark: listed apart in the source
[8] = target: T3, Trace amine-associated receptor 1; test: Fluorescence-based cell-based high throughput dose response assay to identify agonists of the human trace amine associated receptor 1 (TAAR1).; type: functional
[9] = HeLa cell cytotoxicity, dose response, cytotoxicity control for MgcRacGAP inhibitor project (AID 624300); type: functional
[10] = HepG2 cell cytotoxicity, dose response, cytotoxicity control, plate reader, cherry-pick, antagonist series (AID 743416); type: functional, cell-based
[11] = target: T4, Rac GTPase-activating protein 1 (Homo sapiens, UniProt Q9H0H5); test: MgcRacGAP GTPase-activating activity inhibitors, confirmation, biochemical, ADP Hunter fluorescence, primary and confirmatory (AID 624330); type: functional
T4 sequence (Q9H0H5 whole entry): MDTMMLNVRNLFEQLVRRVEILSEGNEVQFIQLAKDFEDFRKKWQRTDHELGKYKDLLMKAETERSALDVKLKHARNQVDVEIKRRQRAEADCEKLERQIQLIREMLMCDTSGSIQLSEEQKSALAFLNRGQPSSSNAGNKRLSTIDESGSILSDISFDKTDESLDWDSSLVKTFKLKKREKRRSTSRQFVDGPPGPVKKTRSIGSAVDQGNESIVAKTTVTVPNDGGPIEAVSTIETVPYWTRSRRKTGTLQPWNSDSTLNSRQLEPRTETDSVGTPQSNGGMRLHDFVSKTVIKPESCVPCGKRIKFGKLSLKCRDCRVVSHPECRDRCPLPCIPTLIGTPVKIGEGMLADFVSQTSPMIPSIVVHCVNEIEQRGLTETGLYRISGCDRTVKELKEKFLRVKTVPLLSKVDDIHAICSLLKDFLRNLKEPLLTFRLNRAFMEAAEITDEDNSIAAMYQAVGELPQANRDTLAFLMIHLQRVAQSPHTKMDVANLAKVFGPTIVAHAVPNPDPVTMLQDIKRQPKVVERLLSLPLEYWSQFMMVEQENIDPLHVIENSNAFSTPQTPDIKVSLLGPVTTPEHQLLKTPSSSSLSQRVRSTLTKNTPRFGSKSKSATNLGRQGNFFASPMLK

[12] = LGR2 antagonists, dose response, cell-based, HEK293, CRE-luciferase reporter, cherry pick, set 2 (AID 743343); type: functional;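 note: transfected cells were stimulated with diluted bursicon conditioned medium after compound addition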
[13] = A549 cell cytotoxicity, dose response, cytotoxicity control, plate reader, cherry-pick, antagonist series (AID 743412); type: functional, cell-based
Streptococcus = test: Group A Streptococcus viability loss, dose response, counter-screen for streptokinase expression inhibitor project, luminescence, BacTiterGlo (AID 1915); type: functional, organism-based;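 note: potency for reduction of bacterial viability or growth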
[14] = target: DNA (cytosine-5)-methyltransferase 1 (Homo sapiens, UniProt P26358); test: DNMT1 methyltransferase inhibitors, confirmation, biochemical, fluorescent molecular beacon (AID 602386); type: functional
[15] = system: Streptococcus sp. 'group A'; test: growth inhibition of control SK(-) GAS strain, dose response, counter-screen for streptokinase expression inhibitor project, luminescence, kanamycin, BacTiterGlo, confirmation (AID 1900); type: functional, organism-based
Streptokinase A = target: T5, Streptokinase A (Streptococcus pyogenes serotype M1, UniProt P10520); test: S. pyogenes streptokinase expression inhibitors, potency, dose response, plasminogen activation absorbance, OD405 (AID 1914); type: functional, Streptococcus pyogenes M1 GAS;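 note: secreted streptokinase activity via plasminogen activation per viability signal from cell pellet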
T5 sequence (P10520 whole entry): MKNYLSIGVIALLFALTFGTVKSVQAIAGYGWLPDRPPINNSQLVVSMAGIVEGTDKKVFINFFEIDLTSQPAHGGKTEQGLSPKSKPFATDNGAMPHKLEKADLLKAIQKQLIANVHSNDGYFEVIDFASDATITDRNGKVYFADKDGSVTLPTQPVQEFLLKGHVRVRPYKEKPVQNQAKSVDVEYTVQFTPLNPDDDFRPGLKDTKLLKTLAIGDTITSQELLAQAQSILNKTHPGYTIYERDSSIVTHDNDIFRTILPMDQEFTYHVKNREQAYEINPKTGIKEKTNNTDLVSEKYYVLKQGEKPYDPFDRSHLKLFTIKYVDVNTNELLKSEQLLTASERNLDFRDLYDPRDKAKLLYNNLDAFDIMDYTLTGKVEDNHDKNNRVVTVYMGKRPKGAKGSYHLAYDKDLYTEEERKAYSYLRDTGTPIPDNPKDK

[16] = target: T6, Heat shock factor protein 1 (Mus musculus, UniProt P38532); test: inhibition of MG132-induced HSE-luciferase signal, confirmation, cell-based, NIH3T3, luminescence, dose retest (AID 2382); type: functional;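 note: NIH3T3 fibroblasts with HSF1-driven luciferase reporter stressed by proteasome inhibitor MG132; luminescence from HSF1-driven luciferase expression after 8 hours of MG132 stress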
T6 sequence (P38532 whole entry): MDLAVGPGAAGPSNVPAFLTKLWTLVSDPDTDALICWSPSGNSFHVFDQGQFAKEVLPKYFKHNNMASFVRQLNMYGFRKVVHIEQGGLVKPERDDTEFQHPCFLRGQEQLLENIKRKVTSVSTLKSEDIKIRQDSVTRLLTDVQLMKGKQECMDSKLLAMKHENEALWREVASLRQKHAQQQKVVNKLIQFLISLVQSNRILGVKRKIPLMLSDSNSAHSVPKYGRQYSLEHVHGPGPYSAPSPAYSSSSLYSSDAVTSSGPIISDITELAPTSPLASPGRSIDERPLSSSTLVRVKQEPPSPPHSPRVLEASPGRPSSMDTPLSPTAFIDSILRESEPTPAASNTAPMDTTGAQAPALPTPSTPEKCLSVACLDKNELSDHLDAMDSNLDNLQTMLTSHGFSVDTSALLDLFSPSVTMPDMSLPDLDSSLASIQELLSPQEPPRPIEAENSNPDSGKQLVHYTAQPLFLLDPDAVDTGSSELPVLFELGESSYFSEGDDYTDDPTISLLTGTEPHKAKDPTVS

Prothrombin = Prothrombin (Bos taurus, UniProt P00735); test: thrombin inhibition, dose response, biochemical, fluorescence polarization, uHTS hits (AID 602369); type: functional
[17] = target: Dual specificity tyrosine-phosphorylation-regulated kinase 1A (Rattus norvegicus, UniProt Q63470); type: biochemical, Homo sapiens
[18] = target: 26S proteasome non-ATPase regulatory subunit 14 (Homo sapiens, UniProt O00487); test: inhibition of proteasome subunit RPN11 – biochemical, fluorescence polarization, uHTS hits, confirmation (AID 602368); type: functional
[19] = target: 72 kDa type IV collagenase (Homo sapiens, UniProt P08253); test: Dose Response validation of uHTS RPN11 inhibitor hits using a MMP-2 Fluorescence assay.; type: functional
[20] = target: T7, DNA repair protein RAD52 homolog (Homo sapiens, UniProt P43351); type: functional, biochemical
T7 sequence (P43351 whole entry): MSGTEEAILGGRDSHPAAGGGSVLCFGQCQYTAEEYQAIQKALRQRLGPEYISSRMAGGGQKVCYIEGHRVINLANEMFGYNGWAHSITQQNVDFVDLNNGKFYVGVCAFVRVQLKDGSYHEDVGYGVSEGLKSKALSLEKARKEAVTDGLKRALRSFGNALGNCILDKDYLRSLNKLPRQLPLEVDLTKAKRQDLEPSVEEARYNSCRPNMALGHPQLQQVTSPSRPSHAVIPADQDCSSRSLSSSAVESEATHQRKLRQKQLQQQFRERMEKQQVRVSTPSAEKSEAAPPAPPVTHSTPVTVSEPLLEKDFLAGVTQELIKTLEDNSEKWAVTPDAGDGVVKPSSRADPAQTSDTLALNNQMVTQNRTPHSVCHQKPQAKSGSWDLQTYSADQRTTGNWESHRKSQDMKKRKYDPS

Ras and Rab interactor 1/Tyrosine-protein kinase ABL1, sequence (P00519 whole entry): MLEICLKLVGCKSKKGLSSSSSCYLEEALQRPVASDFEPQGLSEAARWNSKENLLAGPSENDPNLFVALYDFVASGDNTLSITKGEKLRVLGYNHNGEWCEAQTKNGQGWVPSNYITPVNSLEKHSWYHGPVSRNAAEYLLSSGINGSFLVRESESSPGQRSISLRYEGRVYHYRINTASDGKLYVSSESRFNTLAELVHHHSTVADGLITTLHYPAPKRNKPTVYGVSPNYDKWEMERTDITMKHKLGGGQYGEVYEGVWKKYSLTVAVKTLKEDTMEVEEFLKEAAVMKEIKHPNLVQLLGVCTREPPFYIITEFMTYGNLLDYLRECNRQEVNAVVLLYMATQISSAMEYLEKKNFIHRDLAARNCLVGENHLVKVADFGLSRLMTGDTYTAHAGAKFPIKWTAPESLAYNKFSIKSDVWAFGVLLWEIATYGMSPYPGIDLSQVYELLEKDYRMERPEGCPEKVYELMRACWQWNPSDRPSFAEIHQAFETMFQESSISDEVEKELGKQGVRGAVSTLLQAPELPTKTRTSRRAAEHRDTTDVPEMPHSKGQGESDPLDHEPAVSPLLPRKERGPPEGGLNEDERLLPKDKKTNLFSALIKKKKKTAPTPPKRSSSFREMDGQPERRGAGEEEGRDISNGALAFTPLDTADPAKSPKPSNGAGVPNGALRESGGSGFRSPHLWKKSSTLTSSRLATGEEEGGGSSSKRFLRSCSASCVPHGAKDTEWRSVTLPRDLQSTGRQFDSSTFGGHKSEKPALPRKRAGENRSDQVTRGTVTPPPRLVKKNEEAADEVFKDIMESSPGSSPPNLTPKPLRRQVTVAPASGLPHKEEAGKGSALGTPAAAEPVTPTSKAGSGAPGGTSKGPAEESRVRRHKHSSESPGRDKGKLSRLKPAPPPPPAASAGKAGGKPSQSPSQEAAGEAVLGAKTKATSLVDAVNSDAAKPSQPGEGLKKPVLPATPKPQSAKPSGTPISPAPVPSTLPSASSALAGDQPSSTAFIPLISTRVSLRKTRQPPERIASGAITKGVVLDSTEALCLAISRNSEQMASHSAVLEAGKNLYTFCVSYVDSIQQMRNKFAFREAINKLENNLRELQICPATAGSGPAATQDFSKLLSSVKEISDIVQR
Ras and Rab interactor 1/Tyrosine-protein kinase ABL1, sequence (Q13671 whole entry): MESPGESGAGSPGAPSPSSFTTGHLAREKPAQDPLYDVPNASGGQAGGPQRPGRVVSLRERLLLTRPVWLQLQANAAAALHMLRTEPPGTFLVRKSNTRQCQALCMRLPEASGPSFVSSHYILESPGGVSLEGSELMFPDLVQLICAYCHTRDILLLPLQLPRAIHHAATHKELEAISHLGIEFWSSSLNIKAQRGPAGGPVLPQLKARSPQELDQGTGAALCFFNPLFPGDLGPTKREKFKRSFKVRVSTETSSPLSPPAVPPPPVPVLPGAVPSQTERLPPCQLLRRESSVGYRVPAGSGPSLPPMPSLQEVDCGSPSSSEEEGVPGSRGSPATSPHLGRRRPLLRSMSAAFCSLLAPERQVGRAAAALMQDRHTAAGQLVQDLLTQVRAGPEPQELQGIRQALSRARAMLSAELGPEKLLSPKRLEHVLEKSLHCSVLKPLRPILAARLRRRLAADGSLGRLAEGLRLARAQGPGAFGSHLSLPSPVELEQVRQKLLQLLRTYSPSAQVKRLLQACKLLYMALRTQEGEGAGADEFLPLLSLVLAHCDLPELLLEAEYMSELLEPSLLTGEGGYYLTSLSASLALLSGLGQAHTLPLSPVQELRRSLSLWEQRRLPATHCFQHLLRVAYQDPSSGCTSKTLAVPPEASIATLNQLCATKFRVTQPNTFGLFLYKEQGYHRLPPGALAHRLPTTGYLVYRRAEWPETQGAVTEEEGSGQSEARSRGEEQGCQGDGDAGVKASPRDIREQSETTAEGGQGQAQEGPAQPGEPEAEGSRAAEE
72 kDa type IV collagenase, sequence (P08253 whole entry): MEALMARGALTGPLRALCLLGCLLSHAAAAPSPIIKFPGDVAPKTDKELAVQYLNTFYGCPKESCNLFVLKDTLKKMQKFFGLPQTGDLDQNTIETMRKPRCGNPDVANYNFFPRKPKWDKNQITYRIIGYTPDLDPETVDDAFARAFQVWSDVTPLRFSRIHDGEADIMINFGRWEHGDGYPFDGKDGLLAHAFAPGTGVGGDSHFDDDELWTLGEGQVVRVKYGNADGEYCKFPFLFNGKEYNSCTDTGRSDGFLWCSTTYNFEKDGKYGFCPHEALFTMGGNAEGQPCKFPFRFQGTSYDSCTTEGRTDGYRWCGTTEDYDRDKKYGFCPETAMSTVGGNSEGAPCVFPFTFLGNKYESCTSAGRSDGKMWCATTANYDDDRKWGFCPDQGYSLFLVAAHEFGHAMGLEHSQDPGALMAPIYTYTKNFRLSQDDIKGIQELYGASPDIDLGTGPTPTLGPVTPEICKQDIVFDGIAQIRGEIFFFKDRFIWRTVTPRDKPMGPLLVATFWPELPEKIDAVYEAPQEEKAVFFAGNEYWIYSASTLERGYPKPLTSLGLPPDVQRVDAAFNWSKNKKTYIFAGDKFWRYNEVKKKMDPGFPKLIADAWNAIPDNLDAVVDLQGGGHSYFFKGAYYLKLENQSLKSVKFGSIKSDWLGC
DNA (cytosine-5)-methyltransferase 1, sequence (P26358 whole entry): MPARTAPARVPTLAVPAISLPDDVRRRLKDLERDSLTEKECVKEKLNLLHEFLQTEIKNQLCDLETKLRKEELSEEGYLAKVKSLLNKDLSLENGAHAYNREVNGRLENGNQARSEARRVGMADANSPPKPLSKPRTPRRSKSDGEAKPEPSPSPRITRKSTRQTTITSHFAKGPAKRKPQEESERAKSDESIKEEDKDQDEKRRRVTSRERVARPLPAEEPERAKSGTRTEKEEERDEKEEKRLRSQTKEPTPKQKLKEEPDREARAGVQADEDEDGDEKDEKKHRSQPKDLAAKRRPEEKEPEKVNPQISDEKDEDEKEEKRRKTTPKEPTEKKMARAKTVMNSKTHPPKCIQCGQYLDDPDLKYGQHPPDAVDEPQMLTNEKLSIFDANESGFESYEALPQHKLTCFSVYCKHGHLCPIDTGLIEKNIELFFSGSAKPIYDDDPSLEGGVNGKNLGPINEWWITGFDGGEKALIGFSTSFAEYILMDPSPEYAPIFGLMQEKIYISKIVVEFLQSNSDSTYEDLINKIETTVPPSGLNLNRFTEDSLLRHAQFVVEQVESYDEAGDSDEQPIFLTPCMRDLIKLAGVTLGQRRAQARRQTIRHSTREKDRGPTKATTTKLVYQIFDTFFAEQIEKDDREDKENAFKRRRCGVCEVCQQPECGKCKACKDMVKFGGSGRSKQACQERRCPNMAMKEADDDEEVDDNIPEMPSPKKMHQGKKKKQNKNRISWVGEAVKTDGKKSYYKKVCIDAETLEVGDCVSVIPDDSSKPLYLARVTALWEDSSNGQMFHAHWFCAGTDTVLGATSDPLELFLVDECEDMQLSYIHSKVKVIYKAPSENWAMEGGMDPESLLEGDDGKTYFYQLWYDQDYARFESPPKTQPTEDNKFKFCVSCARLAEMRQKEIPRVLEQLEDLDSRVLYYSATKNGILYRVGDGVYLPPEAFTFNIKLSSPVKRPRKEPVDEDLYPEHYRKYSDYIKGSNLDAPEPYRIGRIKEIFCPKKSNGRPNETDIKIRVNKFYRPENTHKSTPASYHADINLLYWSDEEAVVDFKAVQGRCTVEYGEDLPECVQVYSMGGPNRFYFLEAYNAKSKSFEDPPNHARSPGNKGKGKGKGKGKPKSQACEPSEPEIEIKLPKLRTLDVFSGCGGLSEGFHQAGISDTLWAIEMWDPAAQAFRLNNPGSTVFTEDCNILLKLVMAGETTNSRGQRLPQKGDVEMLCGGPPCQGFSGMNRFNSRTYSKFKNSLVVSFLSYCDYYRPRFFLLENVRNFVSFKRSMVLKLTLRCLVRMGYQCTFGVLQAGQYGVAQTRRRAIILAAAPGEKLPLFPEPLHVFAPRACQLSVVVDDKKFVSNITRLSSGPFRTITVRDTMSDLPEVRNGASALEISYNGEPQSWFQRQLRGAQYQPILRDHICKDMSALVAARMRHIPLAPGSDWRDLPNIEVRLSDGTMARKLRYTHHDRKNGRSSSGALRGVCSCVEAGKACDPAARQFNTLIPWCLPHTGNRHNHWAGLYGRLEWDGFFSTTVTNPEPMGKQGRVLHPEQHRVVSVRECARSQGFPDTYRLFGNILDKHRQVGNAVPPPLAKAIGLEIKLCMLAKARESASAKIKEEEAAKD
26S proteasome non-ATPase regulatory subunit 14, sequence (O00487 whole entry): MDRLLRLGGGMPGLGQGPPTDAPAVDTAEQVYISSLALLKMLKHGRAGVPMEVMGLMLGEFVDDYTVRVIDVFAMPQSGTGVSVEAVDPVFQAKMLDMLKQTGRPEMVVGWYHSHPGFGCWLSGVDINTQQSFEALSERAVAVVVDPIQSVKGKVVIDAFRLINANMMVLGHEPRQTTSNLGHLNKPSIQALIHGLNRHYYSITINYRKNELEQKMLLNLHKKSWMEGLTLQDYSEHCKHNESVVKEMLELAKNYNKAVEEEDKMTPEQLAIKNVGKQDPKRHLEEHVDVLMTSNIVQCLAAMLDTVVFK

COc1ccc(NC(=O)C(c2ccc(C#N)cc2)n2c(=O)c(-c3ccco3)nc3ccccc32)cc1 (stereo unspecified)
IC50 [1]: 13.5 µM (inactive)

O=C(Nc1cccc([N+](=O)[O-])c1)c1cc(S(=O)(=O)N2CCOCC2)cs1
AC50 [2]: 21.8 µM (active)

COC(=O)CCSCc1cn2cc(Cl)ccc2n1
IC50 [3]: 8.83 µM (active)

COCCN(CCOC)C(=O)CSc1ccc(S(=O)(=O)N2CCN(C)CC2)cn1
IC50 [3]: 20.5 µM (inactive)

CCCC(=O)Nc1ccc2c(c1)C(=O)N(C)[C@@H]1CC[C@H](CC(=O)Nc3cn(C)nc3C)O[C@@H]1CO2
AC50 [4]: 0.499 µM (active)

Cc1cc(C(=O)CSc2nnnn2-c2ccccc2)c(C)n1CCc1ccccc1
IC50 [5]: 6.28 µM (active)
IC50 (cells [6]): > 29.9 µM (inactive)
EC50 (cells [7]): > 29.9 µM (inactive)
EC50 [8]: 3.4 µM (active)

Oc1ccc(-c2csc(-c3cccnc3)n2)c(O)c1
CC50 [9]: 100 µM (active)
AC50 [10]: 42.4 µM (active)
IC50 [11]: 30.9 µM (active)
AC50 [12]: 44.3 µM (active)
AC50 [13]: 23.6 µM (active)

COc1ccc(-c2nn(-c3ccccc3)cc2/C=C2/SC(=S)N(CCC(=O)O)C2=O)cc1
EC50 (Streptococcus): 4.88 µM (active)
IC50 [14]: 5.06 µM (active)
EC50 [15]: 2.14 µM (active)
EC50 (Streptokinase A): > 150 µM (not active)

C/C(=N\CCc1ccccc1)C1=C(O)SCC1=O
IC50 [5]: 9.57 µM (active)
IC50 (cells [6]): > 29.9 µM (inactive)
EC50 (cells [7]): > 29.9 µM (inactive)
EC50 [16]: > 195 µM (not active)
EC50 [8]: 1.55 µM (active)

COc1cc(/C=C2\SC(N)=NC2=O)cc(Cl)c1O
IC50 (Prothrombin): 32.8 µM (active)
AC50 [17]: 18.6 µM (active)
IC50 [18]: 26.8 µM (active)
IC50 [11]: 43.6 µM (active)
IC50 [19]: > 100 µM (inactive)

CCOc1ccccc1N(C(=O)c1snc(C(N)=O)c1N)C(C(=O)NCC1CCCO1)c1ccc2ncccc2c1 (stereo unspecified)
IC50 [3]: 25.1 µM (inactive)

CC(=O)Nc1cc(-c2ccc(N3CCN(C)CC3)cc2)cn2c(-c3cccc(C(C)=O)c3)cnc12
AC50 [2]: 14.8 µM (active)
AC50 [20]: 4.9 µM (active)

COc1cccc(C(=O)N[C@H](C(=O)N2CCC[C@H]2C(=O)NCCc2ccccc2Cl)C(C)C)c1
IC50 [5]: 2.22 µM (active)
IC50 (cells [6]): > 29.9 µM (inactive)
EC50 (cells [7]): > 29.9 µM (inactive)
EC50 [8]: 1.08 µM (active)

CC(C)(C)NC(=O)C(c1ccccc1)n1c(=O)c(-c2ccco2)nc2ccccc21 (stereo unspecified)
IC50 [1]: 1.4 µM (active)
